Experimental data from US9962341B2, “Active pharmaceutical ingredient (API) comprising cannabinoids for use in the treatment of cancer” (GW Pharma Limited, priority 2014, dated 2018).
Like-named read-outs stand apart in the source and are kept apart here.

Experiments:
Type in all cases: cell-based
[1] = system: MKN45; experiment: Cell viability (CellTiter-Blue, 72 h), MKN45 gastric cancer cells; conditions: Homo sapiens, MKN-45
Procedure: (§1) The following cell lines were tested in this example: Lung Cancer (A549, NCI-H460); Pancreatic cancer (PANC1, Mia-Pa-Ca-2); Melanoma (WM115, A375); Ovarian cancer (OVCAR3, SKOV3); Gastric cancer (MKN45, HGC-27); Renal cancer (ACHN) and Bladder Cancer (RT112).
(§2) Each tumour cell line was maintained in vitro in RPMI 1640+10% heat inactivated FBS and 2 mM L-glutamine (growth media) at 37° C. in 5% CO2 and humidified conditions. The cells were harvested, washed, re-suspended into growth medium and counted. The cells were re-suspended into assay media (RPMI 1640+5% heat inactivated FBS+ and 2 mM L-glutamine) at 4×10^4 cells/ml (dependent upon cell type) and plated into the middle 240 wells of 384 well tissue culture plates (Corning CellBind, black-wall plates) 25 μl/well aliquots; 50 μl of growth media was aliquoted into the outer wells. There were 3 plates for each cell line.
(§3) The plates were incubated overnight at 37° C., in 5% humidified CO2.
(§4) The phytocannabinoid test compounds were prepared in 100% DMSO vehicle at a stock concentration of 20 and 40 mM.
(§5) Starting with the 20 mM stock in DMSO, this was serially diluted (2 fold) in DMSO in a 96-well plate, to 20 (no dilution), 10, 5, 2.5, 1.25, 0.625, 0.315, 0.157 and […]. Following this, 10 ul of each compound dilution was diluted into 990 ul of 1% (v/v) FBS media in a deep well block making the final concentrations of 200, 100, 50, 25, 12.5, 6.25, 3.125, 1.56 and 0.79 μM (2× final assay concentrations and 1% DMSO).
(§6) An equal volume of each cannabinoid in the combination (stock concentration 40 mM) was mixed together to make a stock of 20 mM of each cannabinoid in DMSO. This was serially diluted (2 fold) in DMSO in a 96-well plate, to 20 (no dilution), 10, 5, 2.5, 1.25, 0.625, 0.315, 0.157 and […]. Following this, 10 ul of each combination dilution was diluted into 990 ul of 1% (v/v) FBS media in a deep well block making the final concentrations of 200, 100, 50, 25, 12.5, 6.25, 3.125, 1.56 and 0.79 μM (2× final assay concentrations and 1% DMSO).
(§7) Cisplatin (stock of 1 mg/ml=3.33 mM in water) was diluted in 1% FBS media to give a stock concentration of 1 mM. This was then diluted in 1% FBS media from the stock solution to 200 μM, then serially diluted (3-fold) in 1% FBS media to 200 (no dilution), 66.66, 22.22, 7.41, 2.47, 0.82, 0.27, 0.09, 0.03 μM (2× final assay concentrations; no DMSO).
(§8) The plates were incubated for 72 h at 37° C. in 5% humidified CO2. To develop the plates, at 72 h, 10 μl of CellTiter-Blue™ reagent was added to each test/blank well.
(§9) The plates were incubated at 37° C., 5% humidified CO2. Fluorescence was measured using a Flex II Station plate reader (570 nm excitation wavelength, 600 nm emission wavelength, 590 nm cut-off) after 3 h.
(§10) The phytocannabinoid compounds CBD, CBGA, CBG, CBDA, THCV and THC were tested on a panel of lung (A549, NCI-H460), pancreatic (PANC1, Mia-Pa-Ca-2), melanoma (WM115, A375), ovarian (OVCAR3, SKOV3), gastric (MKN45, HGC-27), renal (ACHN) and bladder (RT112) cancer cell lines according to the protocol for 72 h in media containing 1% FBS.
(§11) The IC50 values for each phytocannabinoid and combination of CBD with the other phytocannabinoids was calculated for each cell line. The raw data values expressed in relative fluorescent units were normalised to the vehicle for each individual plate and any reduction in fluorescence indicated a decrease in viability.
(§12) This calculation was as described in Example 1 above.

[2] = system: OVCAR3; experiment: Cell viability (CellTiter-Blue, 72 h), OVCAR3 ovarian cancer cells; conditions: Homo sapiens, OVCAR-3
Procedure: as §1, §2, §3, §4, §5, §6, §7, §8, §9, §10, §11, §12

[3] = system: HGC-27; experiment: Cell viability (CellTiter-Blue, 72 h), HGC-27 gastric cancer cells; conditions: Homo sapiens
Procedure: as §1, §2, §3, §4, §5, §6, §7, §8, §9, §10, §11, §12

[4] = MKN45, 1% FBS, 72 h, read-out: Cell line IC50 value
[5] = MKN45 cells, 1% FBS, read-out: Dm (potency, median effect)
[6] = OVCAR3, 1% FBS, 72 h, read-out: Cell line IC50 value
[7] = OVCAR3 cells, 1% FBS, read-out: Dm (potency, median effect)
[8] = HGC-27, HGC27 cells, 1% FBS, read-out: Dm (potency, median effect)
[9] = HGC-27, 1% FBS, 72 h, read-out: Cell line IC50 value

SMILES | IC50 [1, 4] | IC50 [1, 5] | IC50 [2, 6] | IC50 [2, 7] | IC50 [3, 8] | IC50 [3, 9]
C=C(C)[C@@H]1CCC(C)=C[C@H]1c1c(O)cc(CCCCC)cc1O [CBD, Cannabidiol] | 3.4 µM | 3.91 µM | 2.8 µM | 2.14 µM | 1720 nM | 1500 nM
C=C(C)[C@@H]1CCC(C)=C[C@H]1c1c(O)cc(CCCCC)c(C(=O)O)c1O [CBDA, Cannabidiolic acid] | 8.8 µM | 8.04 µM | 6.7 µM | 5.51 µM | 10400 nM | 1300 nM
CCCCCc1cc(O)c(C/C=C(\C)CCC=C(C)C)c(O)c1 [CBG, Cannabigerol] | 4.3 µM | 4.16 µM | 5.3 µM | 4.33 µM | 1730 nM | 1600 nM
CCCCCc1cc(O)c(C/C=C(\C)CCC=C(C)C)c(O)c1C(=O)O [CBGA, Cannabigerolic acid] | 6.5 µM | 6.4 µM | 6.1 µM | 6.41 µM | 5470 nM | 7800 nM
CCCCCc1cc(O)c2c(c1)OC(C)(C)[C@@H]1CCC(C)=C[C@@H]21 [THC, Tetrahydrocannabinol, reference compound] | 4.2 µM | 4.42 µM | 5.9 µM | 4.42 µM | 2740 nM | 2800 nM
CCCc1cc(O)c2c(c1)OC(C)(C)[C@@H]1CCC(C)=C[C@@H]21 [THCV, Tetrahydrocannabivarin] | 6.5 µM | 6.88 µM | 6.5 µM | 6.51 µM | 3060 nM | 4100 nM
